Laboratory results: article PMC5702336, “Critical Role of Hepatic Cyp450s in the Testis-Specific Toxicity of (5R)-5-Hydroxytriptolide in C57BL/6 Mice” (Frontiers in Pharmacology, 2017)
Entries after “also recorded” stand apart in the source; their conditions may differ.

Experiments:
WT and KO mice = assay: 15-day oral toxicological study in WT and hepatic Cpr KO mice (organ weights, H&E, TUNEL, serum chemistry); assay type: in vivo, mouse
Text: Animal use protocols were approved by the Institutional Animal Care and Use Committee of the Shanghai Institute of Materia Medica (Shanghai, China), IACUC No. 2016-10-RJ-136. The Cpr knockout (KO) mice were a gift from Professor Xinxin Ding (Wadsworth Center, Albany, NY, USA). Procedures for animal breeding and genotyping were reported previously (Wu et al., [2005]). Eight to twelve weeks old male KO mice and their WT littermates on a mixed C57BL/6 and 129/Sv genetic background were used in this study. All animals were provided with a certified standard diet and tap water ad libitum during experiments. All animals were maintained under controlled temperature with a 12 h:12 h light/dark cycle. All efforts were made to minimize animal discomfort and illness, and mice were anesthetized with pentobarbital sodium (150 mg/kg, i.p.) before sample collection. No animals died during the experiment.
(§1) For toxicity experiments, mice (n = 3/group) were treated with LLDT-8 (0.5 or 1.0 mg/kg) consecutively administered by gavage for 15 days. Controls received saline. Mice were killed on the 15th-day post-administration and blood, liver, kidney, spleen, testes, and epididymis were collected. About 500 μL blood samples were collected from the heart. The main lobe of the liver, kidney, spleen, and epididymis was fixed in 10% neutral buffered formalin for histological examination, and the left testicle was fixed in modified Davidson's buffer (30% of a 37–40% solution of formaldehyde, 15% ethanol, 5% glacial acetic acid, and 50% distilled H2O) for 16 h followed by 10% neutral buffered formalin for 24 h (Latendresse et al., [2002]). Tissue sections were stained with hematoxylin and eosin (H&E). Remaining tissues were stored at −80°C for RNA and protein extraction.
Sera were assayed for Urea, creatine (CRE), alanine aminotransferase (ALT), and aspartate transaminase (AST) using an automatic HITACHI Clinical Analyzer Model 7080 (Hitachi High-Technologies Corporation, Tokyo, Japan). The intercoefficients of variability in this assay were1.1% (ALT), 0.9% (AST), 1.2% (Urea) and 1.4% (CRE). The intracoefficients of variability in this assay were 2.0% (ALT), 0.9% (AST), 1.2% (Urea) and 5.1% (CRE).
TUNEL assays were performed according to the manufacturer's protocol (In Situ Cell Death Kit, Roche Diagnostics, Indianapolis, IN). In brief, the paraffin-embedded testis tissue samples were deparaffinized three times in exchanges wash of xylene. The testis sections were then gradually rehydrated using decreasing ethanol concentrations (100, 95, 90, 80, and 70%) followed by PBS (pH = 7.4). After digestion with proteinase K (15 μg/mL, Cat. No. 539480, Lot. No. D00148754, Millipore, USA), paraffin-embedded tissue sections were labeled with a TUNEL reaction mixture, which contained terminal deoxynucleotidyl transferase incorporated with fluorescein. And 1 μg/mL DAPI (Sigma, USA) to used to reveal nuclear DNA. After staining, images were obtained with a fluorescent microscope (NIKON TS2, Japan).

mice testes = assay: Testicular toxicity comparison between triptolide and LLDT-8 (15 days by gavage, H&E); assay type: in vivo, mouse; conditions: 0.5 mg/kg by gavage for 15 days
Experimental: For toxicity experiments, mice (n = 3 for each group) were treated with tritpilide (0.125, 0.25, 0.5mg/kg), LLDT-8 (0.125, 0.25, 0.5mg/kg) consecutively administered by gavage for 15 days. The control group received saline. Mice were sacrificed on the 15th day post-administration and blood, liver, kidney, spleen, testis and epididymis were collected. The main lobe of liver, kidney, spleen and epididymis were fixed in 10% neutral buffered formalin for histological examination, the left testicle was fixed in Davidson’s buffer for 16 hours followed by 10% neutral buffered formalin. Tissue sections were stained with hematoxylin and eosin (H&E). Remaining tissues were stored at -80 °C for RNA and protein extraction.
Supplementary Figure S1 Comparison of testicular toxicity between triptolide(TL) and LLDT-8. Mice (n=3) were weighted before sacrificed on the 15th day post-administration of triptolide, LLDT-8 or saline. The testes were collected and weighted. […] (G-H) Comparison of epididymis weight between triptolide and LLDT-8. Significant difference was determined by one-way Anova, mean ± SD. * p<0.05, *** p<0.001 vs Saline group. # p<0.05, ## p<0.01, ### p<0.001 vs T8 group at the same dosage.

testes gene expression = assay: qPCR of AR-related, Sertoli cell and germ cell marker genes in testes; assay type: in vivo, mouse
Experimental: as §1
Total mouse testes RNA was isolated using a UNIQ-10 total RNA isolation kit (Sangon Biotech, Shanghai, China). One micro gram RNA per sample was reverse-transcribed into cDNA using a PrimeScript RT reagent kit (Cat. No. RR036A, Takara, Dalian, China). The purity and quality of RNA and cDNA were checked by A260/A280 ratio and agarose gel. The qPCR was executed in 20 μL volume containing 10 μL SYBR Premix Ex Taq (Cat. No. RR820A, Takara, Dalian, China), 8 μL of cDNA (80 ng cDNA), 1 μL forward primer (500 nM) and 1 μL reverse primer (500 nM). The sequences of primers for Androgen-binding protein (ABP) and cystatin 12 (Cst12) were referenced from PrimerBank. The sequences for other genes were described elsewhere [Deleted in azoospermia-like (Dazl), Heat shock protein a2 (Hspa2), Phosphoglycerate kinase-2 (Pgk2), Protamine 1 (Prm1), GATA binding protein 1 (Gata1) and Zbtb16 zinc finger and BTB domain containing 16 (Plzf) (Qi et al., [2016]); AR (Ma et al., [2013]); Reproductive homeobox 5 (Rhox5) (Kurek et al., [2015]); Fatty acid binding protein (FABP) (Vanschoonbeek et al., [2008]); Claudin 11 (Cldn11) (Sumigray et al., [2014]); β-actin (Wan et al., [2017])]. The qPCR process was performed using a Rotor Gene Q PCR system (QIAGEN, Shanghai, China). The qPCR amplification program consisted of polymerase activation at 98°C for the 30 s and 40 cycles of denaturation at 95°C for 5 s, annealing, and extension at 60°C for 40 s. The melting curve analysis was carried out for each reaction from 50 to 99°C. The CT values for the samples were normalized to the corresponding β-actin CT values.

mice = system: mice; parameters: method as in Zhou et al., 2005; conditions: p.o., ref Zhou et al., 2005; cited from earlier work
[1] = after LLDT-8 treatment, 15 days

SMILES: CC(C)[C@]12O[C@H]1[C@@H]1O[C@]13[C@]1(O[C@H]1C[C@@]1(O)C4=C(CC[C@]31C)C(=O)OC4)[C@@H]2O [LLDT-8, (5R)-5-hydroxytriptolide]
- epididymis weight (WT and KO mice; 0.5–1 mg/kg by gavage 15 days): not changed
- testes weight (WT and KO mice; 0.5–1 mg/kg by gavage 15 days): dose-dependently reduced
- testis histology (H&E) in KO mice compared to WT mice (WT and KO mice; 0.5–1 mg/kg by gavage 15 days): reduced germinal cell layers; also recorded: severe vacuolar degeneration; also recorded: absence of spermatids development
- body weight (WT and KO mice; 0.5–1 mg/kg by gavage 15 days, WT and KO mice): did not alter
- hematology and spleen in KO mice (WT and KO mice; 15 days by gavage): induced hematological change and enlarged spleen
- liver injury and kidney damage (WT and KO mice; 15 days by gavage, WT and KO mice): did not cause liver injury and kidney damage
- TUNEL-positive foci in testes of WT mice vs WT mice with saline (WT and KO mice; [1]): apparently increased
- number of TUNEL positive foci in testis, KO mice vs WT mice (WT and KO mice; [1]): much higher
- testis morphology (H&E) (mice testes): did not obviously alter the normal morphology of testes
- expression of AR, Rhox5, Cldn11, Cst12, ABP and FABP in testes of WT mice (testes gene expression; 0.5–1.0 mg/kg, 15 days): did not reduce
- expression of Dazl and Prm1 in testes of WT mice (testes gene expression; 15 days): marked decrease
- expression of Hspa2 in testes of WT mice (testes gene expression; 15 days): mild decrease
- expression of Cldn11, Cst12 and FABP in testes of WT mice (testes gene expression; particularly in 1.0 mg/kg group): increased
- LD50 (mice): 9.3 mg/kg
